USRE49873E1, “APP specific bace inhibitors (ASBIs) and uses thereof” (BUCK INSTITUTE FOR RESEARCH ON AGING, priority 2012, dated 2024)
“Also recorded” adds a separate entry of the source.

How the values were obtained:
[1] = molecular target: T1, BACE cleavage of the MBP-C125 APP substrate (Homo sapiens, UniProt P05067); assay: ASBI assay a): BACE cleavage of MBP-C125 substrate (C99 by AlphaLISA); type: biochemical
T1 construct: purchased Sigma (methods); R&D (HTS description) B9059; 931-AS-050
Procedure: As illustrated in the Examples, in one embodiment, an MBP-C125 APP695 wt fusion protein can be used as one of the substrates. The second substrate can be the commercially available P5-P5′ fluorescence substrate. Each of these substrates is incubated with recombinant BACE (R&D (cat#931-AS-050) in, for example, a 96 well plate format. For the MBP-C125 substrate the C-99 product from the BACE cleavage can be measured using an AlphaLisa assay as a readout. For the P5-5′ substrate the […] upon BACE cleavage can be used as the readout. An ASBI would inhibit the BACE cleavage of the MBP-C125 substrate while not being inhibitory of the fluorescence substrate.
A protein construct of Maltose-Binding-Protein carrying the 125 C-terminal residues of APP (1 uL of 1 mM in water) was incubated with a flavonoid (100 uM) for 15 minutes. The mix was then submitted to cleavage by BACE (Sigma #B9059, 5 μl of 3 unit/ml in BACE buffer) for 30 minutes. After 0, 10, 20 and 30 minutes, 2 uL the reaction mixture were frozen and the different time points were quantified simultaneously for the amount of APP-C99 created. The quantification was done by using a Perkin Elmer ALPHALisa Amyloid Amyloid Beta kit (AL275C) modified by replacing the anti-Abeta acceptor beads (AL275AC) with anti-APP acceptor beads (AL275AC) and making the antibody mix with 2×ALPHALisa buffer. […]

[2] = tested on: β-CTF production in CHO cells stably over-expressing human APP; assay: β-CTF western blot in CHO cells over-expressing human APP; type: cell-based, Chinese Hamster; details: 10 μM, 24 hr, western blot of cell lysates
Procedure: Chinese Hamster Ovary (CHO) cells stably over-expressing human APP were treated with 10 μM Galangin or DMSO for 24 hr, then the cell lysates and conditioned media were collected. The levels of full length APP and β-CTF in the cell lysates and the levels of sAPPα in the conditioned media were detected by western blot. […] BACE1-dependent cleavage of SEAP-NRG1-β1 was evaluated by SEAP assays with supernatants of control human embryonic kidney 293 (HEK293) cells (SEAP-NRG1-β1) or HEK293 cells co-expressing BACE1 (SEAP-NRG1-β1+BACE1), treated with DMSO or Galangin (10 μM). An increase in shedding of the SEAP-NRG1-b1 fusion protein was measured upon BACE1 co-expression. Shedding in co-expressing cells was not suppressed by Galangin. Error bars indicate SEM. (N.S., p>0.05; n=4, student t test).
The Chinese Hamster Ovary (CHO) cell line over-expressing human AβPP (7 W) was kindly provided by Dr. Edward Koo. Plasmid constructs were transiently transfected into HEK293T or 7 W cells with Lipofectamine 2000 (Invitrogen). Western Blot analysis was performed as previously described (Swistowski et al. (2009) J. Neurosci., 29: 15703-15712). Briefly, 48 hr after transfection, cells were harvested and lysed in NP-40 Cell Lysis Buffer (50 mM TrisHCl, pH 8.0, 150 mM NaCl and 1% NP-40). Cell lysates were mixed with 1×LDS loading buffer (Invitrogen) and 50 mM DTT, and boiled at 100° C. for 10 min. […]

[3] = tested on: APP-Gal4 transactivation in HEK293T cells; assay: APP-Gal4/Mint3/TAZ transactivation assay; type: cell-based; details: Mint3 and TAZ present, galangin at 10 μM
Text: FIGS. 7A and 7B illustrate inhibition of APP-Gal4 and APLP2-Gal4 transactivation by galangin. […] This transactivation was inhibited by Galangin and BACE inhibitor IV. FIG. 7B: Potent transactivation of transcription was also achieved with APLP2 fused to the Gal4 DNA binding domain when both Mint3 and TAZ were present. This transactivation was inhibited by Galangin and BACE inhibitor IV. […] The normalized luciferase activity is expressed as a percentage of the DMSO treated control (FIGS. 7A, 7B). Error bars indicate SEM. (*, p<0.05; **, p<0.01; ***, p<0.001; n=3, student t test).
This assay system is described by Orcholski et al. (2011) J. Alzheimers Dis., 23(4):689-699. Transactivation is achieved upon transfection with Mint3 and Taz. The ASBI was expected to inhibit only the transactivation of APP-Gal4, not that of APLP2-Gal4. For these experiments cells were co-transfected with a Gal4-luciferase reporter plasmid (to measure transactivation), a beta-galactosidase plasmid (to normalize for transfection efficiency), and the test plasmids identified. The normalized luciferase activity was expressed as fold induction over transcription by APP-Gal4 alone (FIG. 7A), or as fold induction over APLP2-Gal4 alone (FIG. 7B).
HEK293T cells were co-transfected with five plasmids: (1) pG5E1B-luc, 0.3 μg; (2) pCMV-LacZ, 0.1 μg; (3) pMst-APP (APP-Gal4) or pcDNA3.1-APLP2-Gal4, 0.3 μg; (4) pCMV5-Mint3, 1.0 μg; (5) pEF-N-FLAG-TAZ, 1.0 μg. Cells were harvested 48 hr after transfection in 0.2 ml per well Cell Culture Lysis Buffer (Promega), and their luciferase and β-galactosidase activities were determined with the Promega luciferase assay kit and the Promega β-galactosidase assay kit, respectively. The luciferase activity was standardized by the β-galactosidase activity to control for transfection efficiency and general effects on transcription. Transfections were performed at 80-90% cofluency in six-well plates using Lipofectamine 2000 (Invitrogen).

T1 sequence (P05067 646-770 limits assumed): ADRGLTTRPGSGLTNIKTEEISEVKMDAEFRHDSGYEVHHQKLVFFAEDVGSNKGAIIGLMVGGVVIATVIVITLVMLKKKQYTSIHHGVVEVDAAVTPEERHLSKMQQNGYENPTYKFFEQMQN

**Q.** Which “inhibition of BACE cleavage of the MBP-C125 substrate” value ([1]; HTS at 10 uM, flavonoid panel at 100 uM) does the source give for `O=c1c(O)c(-c2ccccc2)oc2cc(O)cc(O)c12` [Galangin] here?
**A.** inhibiting the cleavage of the MBP substrate by BACE

**Q.** And the “dose at which effective as an ASBI” value ([1]; in the ASBI assays)?
**A.** 50 µM

**Q.** And the β-CTF production [2]?
**A.** inhibits β-CTF production

**Q.** And the APP-Gal4 transactivation [3]?
**A.** inhibited

**Q.** And the APP-Gal4 transactivation ([3]; listed as galangin)?
**A.** inhibit; also recorded: inhibits APP-Gal4 and APLP2-Gal4
